# Measured values as given in ChEMBL document CHEMBL4387741, “Optimization of novel reversible Bruton's tyrosine kinase inhibitors identified using Tethering-fragment-based screens” (Bioorg Med Chem, 2019).
# Legend:
# [1] = biological target: Atypical kinase COQ8A, mitochondrial (Homo sapiens) (UniProt Q8NI60); experiment: Inhibition of wild-type human […] ADCK3 (M280 to Q647 residues) expressed in bacterial expression system at 1 uM by Kinomescan method relative to control
# [2] = biological target: Mitogen-activated protein kinase kinase kinase 6 (Homo sapiens) (UniProt O95382); experiment: Inhibition of wild-type human partial length ASK2 (M278 to R972 residues) expressed in mammalian expression system at 1 uM by Kinomescan method relative to control
# [3] = biological target: Cyclin-dependent kinase 2 (Homo sapiens) (UniProt P24941); experiment: Inhibition of wild-type human full length CDK2 (M1 to L298 residues) expressed in bacterial expression system at 1 uM by Kinomescan method relative to control
# [4] = biological target: Cyclin-dependent kinase-like 3 (Homo sapiens) (UniProt Q8IVW4); experiment: Inhibition of wild-type human partial length CDKL3 (M1 to D327 residues) expressed in bacterial expression system at 1 uM by Kinomescan method relative to control
# Cyclin-dependent kinase-like 3 (Homo sapiens), sequence (Q8IVW4 whole entry, looked up, the tested form may be a part): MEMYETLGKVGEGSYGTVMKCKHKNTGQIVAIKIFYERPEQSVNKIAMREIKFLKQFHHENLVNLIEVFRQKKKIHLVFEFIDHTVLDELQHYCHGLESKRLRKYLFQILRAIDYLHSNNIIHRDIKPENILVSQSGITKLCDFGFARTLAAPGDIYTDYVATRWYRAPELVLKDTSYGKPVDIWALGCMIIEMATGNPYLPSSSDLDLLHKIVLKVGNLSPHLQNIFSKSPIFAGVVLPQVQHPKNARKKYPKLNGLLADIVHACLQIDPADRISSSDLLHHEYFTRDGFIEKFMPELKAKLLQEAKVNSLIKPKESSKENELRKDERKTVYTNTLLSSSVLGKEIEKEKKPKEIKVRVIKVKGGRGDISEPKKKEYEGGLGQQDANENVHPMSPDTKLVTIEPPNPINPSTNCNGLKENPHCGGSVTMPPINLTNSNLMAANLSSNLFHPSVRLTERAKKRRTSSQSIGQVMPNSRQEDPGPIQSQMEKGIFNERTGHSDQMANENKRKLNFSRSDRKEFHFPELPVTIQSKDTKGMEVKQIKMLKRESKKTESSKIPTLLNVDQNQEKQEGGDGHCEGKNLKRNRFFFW
# [5] = biological target: Homeodomain-interacting protein kinase 4 (Homo sapiens) (UniProt Q8NE63); experiment: Inhibition of wild-type human partial length HIPK4 (M1 to V384 residues) expressed in bacterial expression system at 1 uM by Kinomescan method relative to control
# [6] = test system: Mast/stem cell growth factor receptor Kit (Homo sapiens), P10721 [UNDEFINED MUTATION]; experiment: Inhibition of human partial length KIT V559D/V654 double mutant (Y545 to D952 residues) expressed in bacterial expression system at 1 uM by Kinomescan method relative to control
# Mast/stem cell growth factor receptor Kit (Homo sapiens), P10721 [UNDEFINED MUTATION], sequence (P10721 whole entry, looked up, stated change not applied, the tested form may be a part): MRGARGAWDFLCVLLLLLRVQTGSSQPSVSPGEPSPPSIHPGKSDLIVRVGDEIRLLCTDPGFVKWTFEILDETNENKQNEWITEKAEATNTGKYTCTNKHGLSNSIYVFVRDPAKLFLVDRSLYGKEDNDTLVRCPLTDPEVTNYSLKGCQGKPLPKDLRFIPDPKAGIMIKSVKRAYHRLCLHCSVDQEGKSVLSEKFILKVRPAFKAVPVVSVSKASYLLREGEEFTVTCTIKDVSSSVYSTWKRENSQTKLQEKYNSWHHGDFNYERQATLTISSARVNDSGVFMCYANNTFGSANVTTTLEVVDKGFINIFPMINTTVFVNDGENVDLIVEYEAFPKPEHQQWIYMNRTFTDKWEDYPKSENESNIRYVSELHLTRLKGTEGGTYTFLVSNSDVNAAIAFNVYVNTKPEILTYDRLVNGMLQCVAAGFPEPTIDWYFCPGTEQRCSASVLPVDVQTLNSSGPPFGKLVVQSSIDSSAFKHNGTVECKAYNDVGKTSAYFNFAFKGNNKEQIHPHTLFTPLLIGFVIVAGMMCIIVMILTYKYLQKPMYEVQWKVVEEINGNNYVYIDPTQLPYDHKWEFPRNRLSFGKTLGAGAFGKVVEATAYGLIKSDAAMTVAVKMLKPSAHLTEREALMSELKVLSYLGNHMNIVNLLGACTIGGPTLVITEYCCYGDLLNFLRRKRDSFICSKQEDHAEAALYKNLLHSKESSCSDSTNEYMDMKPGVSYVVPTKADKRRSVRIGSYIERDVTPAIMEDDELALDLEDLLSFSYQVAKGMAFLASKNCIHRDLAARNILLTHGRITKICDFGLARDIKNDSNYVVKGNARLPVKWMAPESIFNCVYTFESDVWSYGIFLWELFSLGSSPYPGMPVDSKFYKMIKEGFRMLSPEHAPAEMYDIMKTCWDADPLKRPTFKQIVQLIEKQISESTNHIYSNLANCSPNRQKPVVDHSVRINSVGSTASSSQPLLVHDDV
# [7] = biological target: Mitogen-activated protein kinase kinase kinase 2 (Homo sapiens) (UniProt Q9Y2U5); experiment: Inhibition of wild-type human partial length MAP3K2 (S315 to H619 residues) expressed in mammalian expression system at 1 uM by Kinomescan method relative to control
# [8] = biological target: Microtubule-associated serine/threonine-protein kinase 1 (Homo sapiens) (UniProt Q9Y2H9); experiment: Inhibition of wild-type human partial length MAST1 (S346 to V730 residues) expressed in mammalian expression system at 1 uM by Kinomescan method relative to control
# [9] = biological target: Dual specificity mitogen-activated protein kinase kinase 7 (Homo sapiens) (UniProt O14733); experiment: Inhibition of wild-type human full length MKK7 (M1 to R419 residues) expressed in mammalian expression system at 1 uM by Kinomescan method relative to control
# Dual specificity mitogen-activated protein kinase kinase 7 (Homo sapiens), sequence (O14733 whole entry, the tested form may be a part): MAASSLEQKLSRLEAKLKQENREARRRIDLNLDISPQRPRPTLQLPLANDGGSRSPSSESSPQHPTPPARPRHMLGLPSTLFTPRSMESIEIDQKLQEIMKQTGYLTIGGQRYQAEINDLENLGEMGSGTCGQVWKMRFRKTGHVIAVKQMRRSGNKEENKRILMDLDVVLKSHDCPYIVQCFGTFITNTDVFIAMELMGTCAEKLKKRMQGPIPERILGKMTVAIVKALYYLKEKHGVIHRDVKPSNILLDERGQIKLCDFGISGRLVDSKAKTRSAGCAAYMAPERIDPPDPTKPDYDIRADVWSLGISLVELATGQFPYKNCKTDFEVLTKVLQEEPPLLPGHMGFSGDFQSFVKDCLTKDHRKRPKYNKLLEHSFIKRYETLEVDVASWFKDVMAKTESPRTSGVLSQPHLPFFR
# [10] = biological target: Membrane-associated tyrosine- and threonine-specific cdc2-inhibitory kinase (Homo sapiens) (UniProt Q99640); experiment: Inhibition of wild-type human partial length PKMYT1 (A88 to G366 residues) expressed in bacterial expression system at 1 uM by Kinomescan method relative to control
# Membrane-associated tyrosine- and threonine-specific cdc2-inhibitory kinase (Homo sapiens), sequence (Q99640 whole entry, the tested form may be a part): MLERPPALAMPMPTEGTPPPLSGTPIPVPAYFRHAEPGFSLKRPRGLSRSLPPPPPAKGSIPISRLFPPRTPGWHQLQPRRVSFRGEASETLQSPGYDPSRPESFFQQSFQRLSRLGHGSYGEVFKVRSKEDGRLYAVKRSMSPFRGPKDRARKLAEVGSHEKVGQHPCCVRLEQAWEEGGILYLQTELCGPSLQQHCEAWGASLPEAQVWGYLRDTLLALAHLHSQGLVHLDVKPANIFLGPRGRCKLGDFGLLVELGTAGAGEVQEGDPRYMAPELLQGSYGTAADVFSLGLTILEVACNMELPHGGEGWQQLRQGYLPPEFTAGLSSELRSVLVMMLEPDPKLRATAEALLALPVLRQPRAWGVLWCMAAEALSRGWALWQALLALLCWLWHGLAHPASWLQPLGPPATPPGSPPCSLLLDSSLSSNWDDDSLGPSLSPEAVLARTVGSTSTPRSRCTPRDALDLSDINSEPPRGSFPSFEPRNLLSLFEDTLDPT
# [11] = biological target: Serine/threonine-protein kinase N1 (Homo sapiens) (UniProt Q16512); experiment: Inhibition of wild-type human partial length PKN1 (E598 to C948 residues) expressed in bacterial expression system at 1 uM by Kinomescan method relative to control
# Serine/threonine-protein kinase N1 (Homo sapiens), sequence (Q16512 2-942 limits assumed): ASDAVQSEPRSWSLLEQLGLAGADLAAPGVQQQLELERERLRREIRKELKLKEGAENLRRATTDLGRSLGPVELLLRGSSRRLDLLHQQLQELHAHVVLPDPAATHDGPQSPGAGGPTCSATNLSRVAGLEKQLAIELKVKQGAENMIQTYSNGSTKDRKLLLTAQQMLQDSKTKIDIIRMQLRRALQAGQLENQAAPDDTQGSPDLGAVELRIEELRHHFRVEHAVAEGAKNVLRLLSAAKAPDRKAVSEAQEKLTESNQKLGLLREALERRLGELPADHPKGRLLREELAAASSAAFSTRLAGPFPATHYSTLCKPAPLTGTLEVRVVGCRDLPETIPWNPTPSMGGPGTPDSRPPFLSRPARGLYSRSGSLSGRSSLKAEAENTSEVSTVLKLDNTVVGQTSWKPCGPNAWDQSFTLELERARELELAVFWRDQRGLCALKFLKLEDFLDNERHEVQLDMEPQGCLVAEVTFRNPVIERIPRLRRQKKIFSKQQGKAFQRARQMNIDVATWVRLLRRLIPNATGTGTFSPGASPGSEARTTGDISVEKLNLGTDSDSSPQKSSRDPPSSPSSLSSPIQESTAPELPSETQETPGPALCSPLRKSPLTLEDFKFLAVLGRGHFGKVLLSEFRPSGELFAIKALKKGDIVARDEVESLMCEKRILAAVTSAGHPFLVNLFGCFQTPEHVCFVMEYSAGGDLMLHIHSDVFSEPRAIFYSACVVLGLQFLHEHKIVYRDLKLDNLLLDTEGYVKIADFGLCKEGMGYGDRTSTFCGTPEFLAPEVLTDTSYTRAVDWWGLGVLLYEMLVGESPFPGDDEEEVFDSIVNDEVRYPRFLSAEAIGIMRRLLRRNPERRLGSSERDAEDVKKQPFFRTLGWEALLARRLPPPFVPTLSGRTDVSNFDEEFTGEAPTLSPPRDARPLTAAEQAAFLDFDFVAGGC
# [12] = biological target: Serine/threonine-protein kinase PknB (Mycobacterium tuberculosis) (UniProt P9WI81); experiment: Inhibition of wild-type Mycobacterium tuberculosis partial length PKNB (M1 to G279 residues) expressed in mammalian expression system at 1 uM by Kinomescan method relative to control
# [13] = biological target: Receptor-interacting serine/threonine-protein kinase 4 (Homo sapiens) (UniProt P57078); experiment: Inhibition of wild-type human partial length RIPK4 (M1 to V303 residues) expressed in mammalian expression system at 1 uM by Kinomescan method relative to control
# [14] = biological target: Proto-oncogene tyrosine-protein kinase ROS (Homo sapiens) (UniProt P08922); experiment: Inhibition of wild-type human partial length ROS1 (A1921 to N2240 residues) expressed in bacterial expression system at 1 uM by Kinomescan method relative to control
# [15] = biological target: STE20-like serine/threonine-protein kinase (Homo sapiens) (UniProt Q9H2G2); experiment: Inhibition of wild-type human partial length SLK (S14 to A307 residues) expressed in bacterial expression system at 1 uM by Kinomescan method relative to control
# STE20-like serine/threonine-protein kinase (Homo sapiens), sequence (Q9H2G2 whole entry, looked up, the tested form may be a part): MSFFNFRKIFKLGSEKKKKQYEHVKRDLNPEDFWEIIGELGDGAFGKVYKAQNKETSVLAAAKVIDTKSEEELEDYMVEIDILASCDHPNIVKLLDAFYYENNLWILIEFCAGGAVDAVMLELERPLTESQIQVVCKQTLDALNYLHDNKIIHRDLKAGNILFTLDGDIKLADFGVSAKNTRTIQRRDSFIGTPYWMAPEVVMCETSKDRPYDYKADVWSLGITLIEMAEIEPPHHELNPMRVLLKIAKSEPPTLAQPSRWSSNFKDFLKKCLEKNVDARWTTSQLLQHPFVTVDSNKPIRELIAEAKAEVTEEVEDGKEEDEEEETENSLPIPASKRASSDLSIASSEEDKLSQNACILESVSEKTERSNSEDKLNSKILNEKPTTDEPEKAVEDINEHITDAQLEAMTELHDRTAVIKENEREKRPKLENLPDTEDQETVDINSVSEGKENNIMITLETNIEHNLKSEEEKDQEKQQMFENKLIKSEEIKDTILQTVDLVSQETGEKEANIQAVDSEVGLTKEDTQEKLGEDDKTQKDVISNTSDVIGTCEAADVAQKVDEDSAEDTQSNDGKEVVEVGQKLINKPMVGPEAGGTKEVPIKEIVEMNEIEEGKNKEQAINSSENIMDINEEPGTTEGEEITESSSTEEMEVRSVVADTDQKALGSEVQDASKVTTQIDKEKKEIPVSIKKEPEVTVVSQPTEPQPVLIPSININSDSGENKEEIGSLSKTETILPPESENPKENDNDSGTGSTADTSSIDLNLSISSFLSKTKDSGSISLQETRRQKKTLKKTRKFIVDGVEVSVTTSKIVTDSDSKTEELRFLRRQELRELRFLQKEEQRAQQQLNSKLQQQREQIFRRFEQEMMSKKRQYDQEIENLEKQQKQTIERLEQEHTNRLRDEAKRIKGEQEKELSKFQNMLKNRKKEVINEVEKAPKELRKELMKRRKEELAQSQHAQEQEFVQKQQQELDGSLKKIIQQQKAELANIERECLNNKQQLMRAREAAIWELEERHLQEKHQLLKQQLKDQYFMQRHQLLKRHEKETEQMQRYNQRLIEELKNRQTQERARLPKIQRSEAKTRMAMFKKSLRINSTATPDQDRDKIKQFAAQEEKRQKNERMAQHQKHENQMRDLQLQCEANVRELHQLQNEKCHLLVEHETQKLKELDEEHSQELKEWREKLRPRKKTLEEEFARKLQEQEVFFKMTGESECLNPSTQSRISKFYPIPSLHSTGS
# [16] = biological target: Tyrosine-protein kinase SYK (Homo sapiens) (UniProt P43405); experiment: Inhibition of wild-type human partial length SYK (D354 to N635 residues) expressed in bacterial expression system at 1 uM by Kinomescan method relative to control
# [17] = biological target: Cytoplasmic tyrosine-protein kinase BMX (Homo sapiens) (UniProt P51813); experiment: Inhibition of wild-type human full length BMX (M1 to H675 residues) expressed in bacterial expression system at 10 uM by Kinomescan method relative to control
# [18] = biological target: Cyclin-dependent kinase-like 3 (Homo sapiens) (UniProt Q8IVW4); experiment: Inhibition of wild-type human partial length CDKL3 (M1 to D327 residues) expressed in bacterial expression system at 10 uM by Kinomescan method relative to control
# [19] = biological target: Serine/threonine-protein kinase 17A (Homo sapiens) (UniProt Q9UEE5); experiment: Inhibition of wild-type human partial length DRAK1 (R32 to E363 residues) expressed in bacterial expression system at 10 uM by Kinomescan method relative to control
# Serine/threonine-protein kinase 17A (Homo sapiens), sequence (Q9UEE5 whole entry, the tested form may be a part): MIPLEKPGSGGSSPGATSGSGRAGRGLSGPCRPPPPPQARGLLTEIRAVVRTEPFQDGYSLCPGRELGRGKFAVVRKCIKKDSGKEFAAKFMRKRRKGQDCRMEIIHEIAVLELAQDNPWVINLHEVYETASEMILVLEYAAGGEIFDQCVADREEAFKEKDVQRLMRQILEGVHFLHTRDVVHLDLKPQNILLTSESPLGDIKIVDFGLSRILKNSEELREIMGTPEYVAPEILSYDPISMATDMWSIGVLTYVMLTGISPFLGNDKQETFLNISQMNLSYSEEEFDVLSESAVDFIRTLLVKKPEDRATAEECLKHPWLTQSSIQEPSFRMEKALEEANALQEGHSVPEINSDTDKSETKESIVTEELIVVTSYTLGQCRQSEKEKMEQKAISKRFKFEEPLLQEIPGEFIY
# [20] = biological target: Dual specificity tyrosine-phosphorylation-regulated kinase 2 (Homo sapiens) (UniProt Q92630); experiment: Inhibition of wild-type human full length DYRK2 (M1 to S528 residues) expressed in mammalian expression system at 10 uM by Kinomescan method relative to control
# [21] = test system: eIF-2-alpha kinase GCN2 (Homo sapiens), Q9P2K8 [S808G]; experiment: Inhibition of wild-type human partial length GCN2 S808G mutant kinase domain 2 (R585 to T1018 residues) expressed in bacterial expression system at 10 uM by Kinomescan method relative to control
# [22] = biological target: Homeodomain-interacting protein kinase 3 (Homo sapiens) (UniProt Q9H422); experiment: Inhibition of wild-type human partial length HIPK3 (M153 to N562 residues) expressed in mammalian expression system at 10 uM by Kinomescan method relative to control
# [23] = biological target: Leucine-rich repeat serine/threonine-protein kinase 2 (Homo sapiens) (UniProt Q5S007); experiment: Inhibition of wild-type human partial length LRRK2 (H970 to E2527 residues) expressed in mammalian expression system at 10 uM by Kinomescan method relative to control
# [24] = biological target: Mitogen-activated protein kinase kinase kinase 13 (Homo sapiens) (UniProt O43283); experiment: Inhibition of wild-type human full length LZK (M1 to W966 residues) expressed in mammalian expression system at 10 uM by Kinomescan method relative to control
# [25] = test system: Hepatocyte growth factor receptor (Homo sapiens), P08581 [Y1235D]; experiment: Inhibition of human partial length MET Y1235D mutant (D1010 to S1367 residues) expressed in bacterial expression system at 10 uM by Kinomescan method relative to control
# [26] = biological target: 1-phosphatidylinositol 3-phosphate 5-kinase (Homo sapiens) (UniProt Q9Y2I7); experiment: Inhibition of wild-type human partial length PIKFYVE (F1512 to C2098 residues) expressed in mammalian expression system at 10 uM by Kinomescan method relative to control
structure (smiles),measurement,setting,value
O=C(Nc1cccc([C@@H]2CN(c3ncnc4[nH]ccc34)CCN2CCO)c1)Nc1c(F)cccc1N1CCCC1,inhibition,[1],100%
same,inhibition,[2],81%
same,inhibition,[3],99%
same,inhibition,[4],100%
same,inhibition,[5],96%
same,inhibition,[6],65%
same,inhibition,[7],40%
same,inhibition,[8],93%
same,inhibition,[9],74%
same,inhibition,[10],84%
same,inhibition,[11],80%
same,inhibition,[12],80%
same,inhibition,[13],80%
same,inhibition,[14],97%
same,inhibition,[15],88%
same,inhibition,[16],97%
O=C(Nc1cccc([C@H]2CCCN(c3ncnc4[nH]ccc34)C2)c1)Nc1ccccc1N1CCCC1,inhibition,[17],43%
same,inhibition,[18],97%
same,inhibition,[19],46%
same,inhibition,[20],78%
same,inhibition,[21],46%
same,inhibition,[22],47%
same,inhibition,[23],96%
same,inhibition,[24],100%
same,inhibition,[25],78%
same,inhibition,[26],77%
